Data set [1] is described as follows: In vivo rat PK: tafamidis in plasma, CSF and brain. Conditions: for Tafamidis CSF/Plasma Ratio (iv): iv administration of test compound; for Tafamidis CSF/Plasma Ratio over 24 hrs (po): po administration of test compound. Further details: species or system Male Sprague-Dawley (SD) rats. From the text:
For a compound provided herein to be an effective TTR stabilizer drug to halt and/or prevent the ocular and cerebral TTR amyloid deposition TTR amyloidosis, it has to be able to penetrate into the brain and CSF (surrogate for eye penetration) and deliver a sufficient amount of TTR stabilizer to stop TTR dissociation. A pharmacokinetic study in rat was used to evaluate the compounds. Male Sprague-Dawley (SD) rats (200-220 g weight) were acclimated for at least 2 to 3 days before being placed on study. All animals had access to certified rodent diet and water at libitum. Appropriate amount of the test compound was accurately weighed and mixed with appropriate volume of vehicle (such as DMSO/sterile water for iv dosing or 0.5% methylcellulose homogenous suspension or solution for oral administration or as a solution in a mixture NMP/PEG400/solutol/water) to administer a dose of 2, 5 or 10 mg/kg. For IV dosing the test compound was administered via tail vein or indwelling cannula. For oral dosing, the test compound was administered by oral gavage. Blood and CSF samples were collected at selected timepoints. Blood collection was performed from saphenous vein or tail vein of each animal into polypropylene tubes at each timepoint. All blood samples were transferred into EDTA-K2 tubes and centrifuged for 15 minutes at 4° C. for plasma collection. Plasma samples were kept at -80° C. until LC/MSMS analysis. CSF was collected from cisterna magna at each timepoint and quick frozen over dry ice and kept at -80° C. until LC/MSMS analysis. Brains were harvested immediately after the terminal bleeding (~ 24 hrs post dosing). The blood of the brain was perfused with normal saline. The brain was quickly picked and placed into centrifuge tube. The weight of brain samples was recorded. 4-Fold homogenization solution (MeOH/15 mM PBS (1:2)) was added into the tube according to the weighed samples. The brain was homogenized using a Polytron (3 strokes or more until homogenous, each 30 seconds) on wet ice. The samples were quick frozen over dry ice and kept at -80° C. until LC/MSMS analysis. Using a LC-MSMS method for the quantitative determination of test compound in biological matrixes, amount of test compound and active agent were measured in plasma and CSF at selected timepoints post-dosing and in brain at 24 hrs post dosing. Plasma concentration versus time data was analyzed by non-compartmental approaches using the Phoenix WinNonlin 6.3 software program. As reference, an oral dose of 2 mg/kg of tafamidis gave a CSF to plasma ratio over 24 hrs around 0.01 and a brain to plasma ratio at 24 hrs around 0.02.

Data set [2] is described as follows: In vitro rat plasma stability assay, formation of tafamidis. In kind it is in vitro ADME. Conditions: 37° C., 2 µM test compound. The procedure: A stability assay in plasma (rat or human) was used to evaluate the ability of a compound provided herein to convert to an active TTR stabilizer. The test compound was added to plasma and incubated at 37° C. in a water bath at a concentration of 2 µM. At each time point (0, 10, 30, 60 and 120 min or 0, 60, 120, 180 and 240 min), stop solution (tolbutamide plus labetalol) was added to precipitate protein and mixed thoroughly. After centrifugation, an aliquot of supernatant was analyzed by LC-MS/MS. The percentage of formation of active agent was calculated at each time point.

Data set [3] in a line: In vitro rat liver S9 stability assay, formation of tafamidis. The data set is classed as in vitro ADME. The settings on record: rat liver S9, 37° C., 1 µM test compound. On the procedure: The test compound was added to liver S9 and incubated at 37° C. in a water bath at a concentration of 1 µM. At each time point (0, 5, 10, 20, 30 and 60 min), stop solution (tolbutamide plus labetalol) was added to precipitate protein and mixed thoroughly. After centrifugation, an aliquot of supernatant was analyzed by LC-MS/MS. The percentage of formation of active agent was calculated at each time point.

Counter-ions that a name gives are not always drawn.

On to `N[C@@H](Cc1cccc(OC(=O)c2ccc3nc(-c4cc(Cl)cc(Cl)c4)oc3c2)c1)C(=O)O` [Compound 28, (S)-2-amino-3-(3-((2-(3,5-dichlorophenyl)benzo[d]oxazole-6-carbonyl)oxy)phenyl) propanoic acid hydrochloride], for which the “Tafamidis CSF/Plasma Ratio (iv)” value in data set [1] was “A (A is <0.015)”. For the same compound, in data set [2], the “Formation of tafamidis at 120 min” value is reported as “A (A is <25%)”.
For `N[C@@H](Cc1ccc(OC(=O)c2ccc3nc(-c4cc(Cl)cc(Cl)c4)oc3c2)cc1)C(=O)O` [Compound 23, (S)-2-amino-3-(4-((2-(3,5-dichlorophenyl)benzo[d]oxazole-6-carbonyl)oxy)phenyl)propanoic acid hydrochloride], in that order: “B (B is ≥0.015 to <0.02)” and “A (A is <25%)”.
Consider `CN1CCC(OC(=O)c2ccc3nc(-c4cc(Cl)cc(Cl)c4)oc3c2)C(F)(F)C1` (stereo not shown) [Compound 14, 3,3-difluoro-1-methylpiperidin-4-yl 2-(3,5-dichlorophenyl) benzo [d]oxazole-6-carboxylate], for which, in data set [1], the “Tafamidis CSF/Plasma Ratio (iv)” value is listed as “B (B is ≥0.015 to <0.02)”. The “Formation of tafamidis at 120 min” value in data set [2] was “A (A is <25%)”.
`CC(CCN(C)C)OC(=O)c1ccc2nc(-c3cc(Cl)cc(Cl)c3)oc2c1` (stereo not shown) [Compound 49, 4-(dimethylamino)butan-2-yl 2-(3,5-dichlorophenyl)benzo[d] oxazole-6-carboxylate hydrochloride]: in data set [1], the “Tafamidis CSF/Plasma Ratio (iv)” value is given as “C (C is ≥0.02)”. The “Formation of tafamidis at 120 min” value in data set [2] is “C (C is ≥50 to <75%)”.
In the case of `CC(CCn1ccnc1)OC(=O)c1ccc2nc(-c3cc(Cl)cc(Cl)c3)oc2c1` (stereo not shown) [Compound 178, 4-(1H-imidazol-1-yl)butan-2-yl 2-(3,5-dichlorophenyl)-benzo [d] oxazole-6-carboxylate], the “Formation of tafamidis at 60 min” value in data set [3] is given as “C (C is ≥50 to <75%)”. In data set [2], the “Formation of tafamidis at 120 min” value was “C (C is ≥50 to <75%)”.
Take `CN1CCCC1COC(=O)c1ccc2nc(-c3cc(Cl)cc(Cl)c3)oc2c1` (stereo not shown) [Compound 61, (1-methylpyrrolidin-2-yl)methyl 2-(3,5-dichlorophenyl)benzo [d] oxazole-6-carboxylate]: the “Formation of tafamidis at 60 min” value in data set [3] is on record as “C (C is ≥50 to <75%)”. Also, the “Formation of tafamidis at 120 min” value in data set [2] is reported as “D (D is ≥75%)”.
As to `CC(COC(=O)c1ccc2nc(-c3cc(Cl)cc(Cl)c3)oc2c1)CN(C)C` (stereo not shown) [Compound 50, 3-(dimethylamino)-2-methylpropyl 2-(3,5-dichlorophenyl) benzo [d] oxazole-6-carboxylate], in data set [1], the “Tafamidis CSF/Plasma Ratio (iv)” value is on record as “A (A is <0.015)”. The “Formation of tafamidis at 120 min” value in data set [2] is on record as “A (A is <25%)”.
For the compound `O=C(OCCN1CCCCC1)c1ccc2nc(-c3cc(Cl)cc(Cl)c3)oc2c1` [Compound 34, 2-(piperidin-1-yl)ethyl 2-(3,5-dichlorophenyl)benzo[d] oxazole-6-carboxylate], in data set [3], the “Formation of tafamidis at 60 min” value is reported as “C (C is ≥50 to <75%)”. For the same compound, in data set [2], the “Formation of tafamidis at 120 min” value is on record as “A (A is <25%)”.
For `O=C(OCC1CCCO1)c1ccc2nc(-c3cc(Cl)cc(Cl)c3)oc2c1` (stereo not shown) [Compound 86], in that order: “D (D is ≥75%)” and “D (D is ≥75%)”.
`CN1CC2CCC1CC2OC(=O)c1ccc2nc(-c3cc(Cl)cc(Cl)c3)oc2c1` (stereo not shown) [Compound 32, 2-methyl-2-azabicyclo[2.2.2]octan-5-yl 2-(3,5-dichlorophenyl) benzo [d]oxazole-6-carboxylate]: in data set [3], the “Formation of tafamidis at 60 min” value is on record as “A (A is <25%)”. The “Formation of tafamidis at 120 min” value in data set [2] is reported as “A (A is <25%)”.
Take `O=C(OC1CCc2nccn2C1)c1ccc2nc(-c3cc(Cl)cc(Cl)c3)oc2c1` (stereo not shown) [Compound 157, 5,6,7,8-tetrahydroimidazo[1,2-a]pyridin-6-yl 2-(3,5-dichlorophenyl)benzo[d]oxazole-6-carboxylate hydrochloride]: the “Formation of tafamidis at 60 min” value in data set [3] is recorded as “A (A is <25%)”. Further, the “Formation of tafamidis at 120 min” value in data set [2] was “B (B is ≥25 to <50%)”.
With `CN(C)[C@H]1CCC[C@@H]1OC(=O)c1ccc2nc(-c3cc(Cl)cc(Cl)c3)oc2c1` [Compound 116], the “Tafamidis CSF/Plasma Ratio over 24 hrs (po)” value in data set [1] was “A (A is < 0.015)”. Also, the “Formation of tafamidis at 60 min” value in data set [3] is listed as “A (A is <25%)”.
The like results for `CC(CN1CCOCC1)OC(=O)c1ccc2nc(-c3cc(Cl)cc(Cl)c3)oc2c1` (stereo not shown) [Compound 143] were, in that order, “A (A is < 0.015)” and “B (B is ≥25 to <50%)”.
As for `O=C(OCCN1CCC1)c1ccc2nc(-c3cc(Cl)cc(Cl)c3)oc2c1` [Compound 36, 2-(azetidin-1-yl)ethyl 2-(3,5-dichlorophenyl)benzo[d]oxazole-6-carboxylate], the “Tafamidis CSF/Plasma Ratio (iv)” value in data set [1] was “A (A is <0.015)”. The “Formation of tafamidis at 120 min” value in data set [2] was “C (C is ≥50 to <75%)”.
`O=C(OC1CC2CCC1CN2)c1ccc2nc(-c3cc(Cl)cc(Cl)c3)oc2c1` (stereo not shown) [Compound 27, 2-azabicyclo[2.2.2]octan-5-yl 2-(3,5-dichlorophenyl)benzo [d]oxazole-6-carboxylate hydrochloride]: the “Formation of tafamidis at 60 min” value in data set [3] is “A (A is <25%)”. Also, in data set [2], the “Formation of tafamidis at 120 min” value was “A (A is <25%)”.
For `Cn1ccnc1COC(=O)c1ccc2nc(-c3cc(Cl)cc(Cl)c3)oc2c1` [Compound 98], the “Formation of tafamidis at 60 min” value in data set [3] is on record as “D (D is ≥75%)”. Further, the “Formation of tafamidis at 120 min” value in data set [2] is recorded as “C (C is ≥50 to <75%)”.
For `CC(C)(C)OC(=O)N1CC2CCC1CC2OC(=O)c1ccc2nc(-c3cc(Cl)cc(Cl)c3)oc2c1` (stereo not shown) [Compound 26, 2-(tert-butoxycarbonyl)-2-azabicyclo[2.2.2]octan-5-yl 2-(3,5-dichlorophenyl) benzo [d] oxazole-6-carboxylate], in that order: “A (A is <25%)” and “A (A is <25%)”.
For `O=C(OC1CCN2CCCC12)c1ccc2nc(-c3cc(Cl)cc(Cl)c3)oc2c1` (stereo not shown) [Compound 180, Hexahydro-1H-pyrrolizin-1-yl 2-(3,5-dichlorophenyl)benzo[d]oxazole-6-carboxylate], in that order: “A (A is <25%)” and “B (B is ≥25 to <50%)”.
For `CC(C)(C)N1CCC(OC(=O)c2ccc3nc(-c4cc(Cl)cc(Cl)c4)oc3c2)C1` (stereo not shown) [Compound 92], in that order: “A (A is <25%)” and “B (B is ≥25 to <50%)”.
As to `Cn1ccnc1CCOC(=O)c1ccc2nc(-c3cc(Cl)cc(Cl)c3)oc2c1` [Compound 177], in data set [3], the “Formation of tafamidis at 60 min” value is “D (D is ≥75%)”. Besides, the “Formation of tafamidis at 120 min” value in data set [2] was “D (D is ≥75%)”.
For the compound `O=C(OCc1ncc[nH]1)c1ccc2nc(-c3cc(Cl)cc(Cl)c3)oc2c1` [Compound 89], the “Formation of tafamidis at 60 min” value in data set [3] is “D (D is ≥75%)”. The “Formation of tafamidis at 120 min” value in data set [2] is on record as “C (C is ≥50 to <75%)”.
Regarding `O=C(OCc1ccccn1)c1ccc2nc(-c3cc(Cl)cc(Cl)c3)oc2c1` [Compound 103], the “Formation of tafamidis at 60 min” value in data set [3] is “D (D is ≥75%)”. Moreover, in data set [2], the “Formation of tafamidis at 120 min” value is given as “B (B is ≥25 to <50%)”.
For `O=C(OCCn1ccnc1)c1ccc2nc(-c3cc(Cl)cc(Cl)c3)oc2c1` [Compound 99], in that order: “D (D is ≥75%)” and “B (B is ≥25 to <50%)”.

For the origin of these results see patent publication US20230287021A1, “COMPOUNDS, COMPOSITIONS AND METHODS FOR STABILIZING TRANSTHYRETIN AND INHIBITING TRANSTHYRETIN MISFOLDING” (Protego Biopharma, Inc., priority 2020, published 2023).
